Where “and” joins values, the source holds several entries; their conditions need not be identical. Equal values may be shown once. Records with an inconclusive call do not appear.
System: BDF1 mice, Friend leukemia sc, tumor weight T/C
Assay: NCI In Vivo Anticancer Drug Screen. Data for tumor model Friend Virus Leukemia (Solid) (subcutaneous) in B6D2F1 (BDF1) mice
Conditions: endpoint: mean tumor weight, higher = larger tumour
Experimental: The antitumor activity of compounds was measured in mice bearing transplantable tumors. Survival or tumor size were measured and the results are expressed as the measurement made in the treated group (T) divided by the measurement made in the vehicle treated control group (C). The tumor model used in this assay is Friend Virus Leukemia (Solid) (subcutaneous) in B6D2F1 (BDF1) mice

[1] = dose: 1.0 mg/kg/injection, schedule: Q01DX011 (ip), vehicle: carboxymethylcellulose (CMC)
[2] = dose: 2.0 mg/kg/injection, schedule: Q01DX011 (ip), vehicle: carboxymethylcellulose (CMC)
[3] = dose: 4.0 mg/kg/injection, schedule: Q01DX011 (ip), vehicle: carboxymethylcellulose (CMC)
[4] = dose: 8.0 mg/kg/injection, schedule: Q01DX011 (ip), vehicle: carboxymethylcellulose (CMC)
[5] = dose: 12.5 mg/kg/injection, schedule: Q01DX011 (ip), vehicle: carboxymethylcellulose (CMC)
[6] = dose: 100.0 mg/kg/injection, schedule: Q01DX011 (ip), vehicle: saline
[7] = dose: 25.0 mg/kg/injection, schedule: Q01DX011 (ip), vehicle: carboxymethylcellulose (CMC)
[8] = dose: 100.0 mg/kg/injection, schedule: Q01DX011 (ip), vehicle: carboxymethylcellulose (CMC)
[9] = dose: 250.0 mg/kg/injection, schedule: Q01DX011 (ip), vehicle: carboxymethylcellulose (CMC)
[10] = dose: 125.0 mg/kg/injection, schedule: Q01DX011 (ip), vehicle: carboxymethylcellulose (CMC)
[11] = dose: 250.0 mg/kg/injection, schedule: Q01DX011 (ip), vehicle: saline
[12] = dose: 375.0 mg/kg/injection, schedule: Q01DX011 (ip), vehicle: saline

Compound: CCCCCCCCCCCCn1c(C)nc2ccccc21
- T/C [1]: 114 % of control
- T/C [2]: 75 % of control
- T/C [3]: 97 % of control
- T/C [4]: 76 % of control

Compound: O=NN(CCCl)C(=O)NCCCl
- T/C (dose: 0.81 mg/kg/injection, schedule: Q01DX011 (ip), vehicle: saline): 112 % of control
- T/C (dose: 1.62 mg/kg/injection, schedule: Q01DX011 (ip), vehicle: saline): 102 % of control
- T/C (dose: 3.25 mg/kg/injection, schedule: Q01DX011 (ip), vehicle: saline): 54 % of control
- T/C (dose: 6.5 mg/kg/injection, schedule: Q01DX011 (ip), vehicle: saline): 39 % of control
- T/C (dose: 10.0 mg/kg/injection, schedule: Q01DX011 (ip), vehicle: saline): 88 % of control
- T/C (dose: 15.0 mg/kg/injection, schedule: Q01DX011 (ip), vehicle: saline): 51 % of control
- T/C (dose: 25.0 mg/kg/injection, schedule: Q01DX011 (ip), vehicle: saline): 4 % of control

Compound: O=c1cn[nH]c(=O)[nH]1
- T/C (dose: 110.0 mg/kg/injection, schedule: Q01DX011 (ip), vehicle: carboxymethylcellulose (CMC)): 72 % of control
- T/C (dose: 220.0 mg/kg/injection, schedule: Q01DX011 (ip), vehicle: carboxymethylcellulose (CMC)): 89 % of control
- T/C (dose: 440.0 mg/kg/injection, schedule: Q01DX011 (ip), vehicle: carboxymethylcellulose (CMC)): 96 % of control

Compound: O=C1C=CC(=Nc2ccc(O)c3ncccc23)c2cccnc21
- T/C (dose: 6.0 mg/kg/injection, schedule: Q01DX011 (ip), vehicle: carboxymethylcellulose (CMC)): 71 % of control
- T/C [5]: 84 % of control

Compound: CCCCNc1ncnc2c1cnn2C
- T/C (dose: 4.0 mg/kg/injection, schedule: Q01DX011 (ip), vehicle: saline): 150 % of control
- T/C (dose: 16.0 mg/kg/injection, schedule: Q01DX011 (ip), vehicle: saline): 117 % of control
- T/C (dose: 31.0 mg/kg/injection, schedule: Q01DX011 (ip), vehicle: saline): 84 % of control

Compound: CCNc1nncs1
- T/C (dose: 8.62 mg/kg/injection, schedule: Q01DX011 (ip), vehicle: carboxymethylcellulose (CMC)): 122 % of control
- T/C (dose: 17.25 mg/kg/injection, schedule: Q01DX011 (ip), vehicle: carboxymethylcellulose (CMC)): 107 % of control
- T/C (dose: 34.5 mg/kg/injection, schedule: Q01DX011 (ip), vehicle: carboxymethylcellulose (CMC)): 193 % of control
- T/C (dose: 69.0 mg/kg/injection, schedule: Q01DX011 (ip), vehicle: carboxymethylcellulose (CMC)): 112 % of control

Compound: Nc1ccc(O)cc1
- T/C [6]: 64 % of control
- T/C (dose: 200.0 mg/kg/injection, schedule: Q01DX011 (ip), vehicle: saline): 4 % of control

Compound: CNC=O
- T/C [5]: 80 % of control
- T/C [7]: 57 % of control and 38 % of control
- T/C (dose: 41.62 mg/kg/injection, schedule: Q01DX011 (ip), vehicle: carboxymethylcellulose (CMC)): 124 % of control
- T/C (dose: 42.0 mg/kg/injection, schedule: Q01DX011 (ip), vehicle: carboxymethylcellulose (CMC)): 92 % of control
- T/C (dose: 43.0 mg/kg/injection, schedule: Q01DX011 (ip), vehicle: carboxymethylcellulose (CMC)): 79 % of control
- T/C (dose: 50.0 mg/kg/injection, schedule: Q01DX011 (ip), vehicle: carboxymethylcellulose (CMC)): 43 % of control
- T/C (dose: 83.25 mg/kg/injection, schedule: Q01DX011 (ip), vehicle: carboxymethylcellulose (CMC)): 92 % of control
- T/C (dose: 85.0 mg/kg/injection, schedule: Q01DX011 (ip), vehicle: carboxymethylcellulose (CMC)): 91 % of control
- T/C (dose: 86.0 mg/kg/injection, schedule: Q01DX011 (ip), vehicle: carboxymethylcellulose (CMC)): 109 % of control
- T/C [8]: 53 % of control
- T/C (dose: 176.5 mg/kg/injection, schedule: Q01DX011 (ip), vehicle: carboxymethylcellulose (CMC)): 91 % of control
- T/C (dose: 200.0 mg/kg/injection, schedule: Q01DX011 (ip), vehicle: carboxymethylcellulose (CMC)): 39 % of control
- T/C [9]: 84 % of control
- T/C (dose: 275.0 mg/kg/injection, schedule: Q01DX011 (ip), vehicle: carboxymethylcellulose (CMC)): 57 % of control
- T/C (dose: 343.0 mg/kg/injection, schedule: Q01DX011 (ip), vehicle: carboxymethylcellulose (CMC)): 41 % of control

Compound: Nc1nc(SCc2ccccc2)c2[nH]cnc2n1
- T/C [2]: 84 % of control
- T/C (dose: 3.12 mg/kg/injection, schedule: Q01DX011 (ip), vehicle: saline): 25 % of control
- T/C [3]: 79 % of control
- T/C (dose: 6.25 mg/kg/injection, schedule: Q01DX011 (ip), vehicle: saline): 43 % of control
- T/C [4]: 99 % of control
- T/C (dose: 10.0 mg/kg/injection, schedule: Q01DX011 (ip), vehicle: carboxymethylcellulose (CMC)): 46 % of control

Compound: O=C(Nc1ccc(C2=NCCN2)cc1)c1ccc(C(=O)Nc2ccc(C3=NCCN3)cc2)cc1
- T/C (dose: 31.25 mg/kg/injection, schedule: Q01DX011 (ip), vehicle: carboxymethylcellulose (CMC)): 94 % of control
- T/C (dose: 62.5 mg/kg/injection, schedule: Q01DX011 (ip), vehicle: carboxymethylcellulose (CMC)): 89 % of control
- T/C [8]: 99 % of control
- T/C [10]: 5 % of control
- T/C (dose: 187.0 mg/kg/injection, schedule: Q01DX011 (ip), vehicle: carboxymethylcellulose (CMC)): 32 % of control

Compound: Clc1ccc(C(c2ccccc2Cl)C(Cl)Cl)cc1 (stereo not given)
- T/C (dose: 375.0 mg/kg/injection, schedule: Q01DX011 (sc), vehicle: steriod suspending solution): 163 % of control
- T/C (dose: 500.0 mg/kg/injection, schedule: Q01DX011 (sc), vehicle: steriod suspending solution): 210 % of control
- T/C (dose: 750.0 mg/kg/injection, schedule: Q01DX011 (sc), vehicle: steriod suspending solution): 155 % of control

Compound: CN(C)N=Nc1n[nH]nc1C(N)=O
- T/C [11]: 75 % of control
- T/C [12]: 40 % of control

Compound: CC1CC(C)OS(=O)O1 (stereo not given)
- T/C (dose: 44.0 mg/kg/injection, schedule: Q01DX011 (ip), vehicle: saline): 70 % of control
- T/C [6]: 71 % of control
- T/C (dose: 150.0 mg/kg/injection, schedule: Q01DX011 (ip), vehicle: saline): 85 % of control

Compound: N=C(N)c1ccc(Nc2ccc(C(=N)N)cc2)cc1
- T/C (dose: 5.0 mg/kg/injection, schedule: Q01DX011 (ip), vehicle: water): 186 % of control
- T/C (dose: 7.5 mg/kg/injection, schedule: Q01DX011 (ip), vehicle: water): 164 % of control
- T/C (dose: 10.0 mg/kg/injection, schedule: Q01DX011 (ip), vehicle: water): 154 % of control
- T/C (dose: 15.0 mg/kg/injection, schedule: Q01DX011 (ip), vehicle: water): 180 % of control

Compound: C=CCn1c(=O)n(CC=C)c(=O)n(CC=C)c1=O
- T/C (dose: 22.5 mg/kg/injection, schedule: Q01DX011 (ip), vehicle: saline): 77 % of control
- T/C (dose: 45.0 mg/kg/injection, schedule: Q01DX011 (ip), vehicle: saline): 103 % of control
- T/C (dose: 90.0 mg/kg/injection, schedule: Q01DX011 (ip), vehicle: saline): 64 % of control
- T/C (dose: 180.0 mg/kg/injection, schedule: Q01DX011 (ip), vehicle: saline): 82 % of control

Compound: COc1cc(OC)c(OC)cc1/C=C\c1ccnc2ccccc12
- T/C (dose: 63.0 mg/kg/injection, schedule: Q01DX011 (ip), vehicle: carboxymethylcellulose (CMC)): 78 % of control
- T/C [10]: 60 % of control
- T/C [9]: 64 % of control
- T/C (dose: 500.0 mg/kg/injection, schedule: Q01DX011 (ip), vehicle: carboxymethylcellulose (CMC)): 52 % of control

Compound: CC1(C)N=C(N)N=C(N)N1c1cccc(Br)c1
- T/C [7]: 88 % of control

Compound: CCOC(=O)NP(=O)(N1CC1(C)C)N1CC1(C)C (stereo not given)
- T/C (dose: 125.0 mg/kg/injection, schedule: Q01DX011 (ip), vehicle: saline): 73 % of control
- T/C (dose: 187.0 mg/kg/injection, schedule: Q01DX011 (ip), vehicle: saline): 101 % of control
- T/C [11]: 65 % of control
- T/C [12]: 24 % of control

Compound: N#[N+]c1cnc([O-])[nH]c1=O
- T/C (dose: 1.3 mg/kg/injection, schedule: Q01DX011 (ip), vehicle: carboxymethylcellulose (CMC)): 113 % of control
- T/C (dose: 11.5 mg/kg/injection, schedule: Q01DX011 (ip), vehicle: carboxymethylcellulose (CMC)): 49 % of control

Compound: Nc1nc(=S)c2ncn(C3OC(CO)C(O)C3O)c2[nH]1 (stereo not given)
- T/C (dose: 0.18 mg/kg/injection, schedule: Q01DX011 (ip), vehicle: carboxymethylcellulose (CMC)): 74 % of control
- T/C (dose: 0.37 mg/kg/injection, schedule: Q01DX011 (ip), vehicle: carboxymethylcellulose (CMC)): 63 % of control
- T/C (dose: 0.6 mg/kg/injection, schedule: Q01DX011 (ip), vehicle: carboxymethylcellulose (CMC)): 53 % of control
- T/C [1]: 36 % of control
- T/C (dose: 1.5 mg/kg/injection, schedule: Q01DX011 (ip), vehicle: carboxymethylcellulose (CMC)): 31 % of control and 48 % of control

Compound: O=c1[nH]c(=O)n(C2CC(O)C(CO)O2)cc1Br (stereo not given)
- T/C [10]: 72 % of control
- T/C [9]: 52 % of control
